In EP0003461A1, “Aminoalcohol derivatives of ortho-hydroxy-methyl cinnamate, process for their preparation and medicines containing them” (LIPHA, LYONNAISE INDUSTRIELLE PHARMACEUTIQUE, priority 1978, dated 1979):

Legend:
[1] = test system: récepteurs bêta-1; assay: Inhibition of isoprenaline-induced tachycardia in the anaesthetised, bivagotomised dog; assay type: in vivo, chien; settings: dog anaesthetised with pentobarbital, isoprénaline 0,4 µg/kg/I.V., beta-1 blockade
Protocol: […]'action sur […] tension artérielle et du rythme cardiaque du […]é au pentobarbital et bivagotomisé recevant des injections […] (0,4 μg/kg/I.V.). L'hypotension provoquée par l'isoprénaline est due à une stimulation des récepteurs bêta-2 qui […] une vasodilatation. La […] produite par l'isopré- naline est due à une stimulation des récepteursbêta-1 cardiaques oui […] une accélération de son rythme de contraction. Dans l'inhibition […] visualisant un effet de blocage des récepteurs bêta-1, on a déterminé la dose efficace 50 en mg/kg/I.V.

[2] = test system: récepteurs bêta-2; assay: Inhibition of isoprenaline-induced hypotension in the anaesthetised, bivagotomised dog; assay type: in vivo, chien; settings: dog anaesthetised with pentobarbital, isoprénaline 0,4 µg/kg/I.V., beta-2 blockade
Text: L'hypotension provoquée par l'isoprénaline est due à une stimulation des récepteurs bêta-2 qui entraîne une vasodilatation. La tachycardie produite par l'isopré- naline est due à une stimulation des récepteursbêta-1 cardiaques oui entraîne une accélération de son rythme de contraction.

[3] = Clinical trial observations in patients given 200 mg tablets; assay type: in vivo
Protocol: Parmi les observations recueillies en essai clinique, avec administration de comprimés titrés à 200 mg de principe actif, le chlorhydrate de l'ortho [(diméthoxy-3,4 phénéthylamino) -3 hydroxy-2 propoxy] trans cinnamate de méthyle, on peut rapporter les trois suivantes : • Observation N°1: • Monsieur NOV...., 64 ans présente un état de mal angineux chroniaue avec huit crises par 24 heures. Le traitement consiste en un repos et la prise d'un comprimé à 200 mg du composé exemple 1 24 heures pendant 10 jours. Le résultat est un effet bradycardisant net; le pouls passe de 95 à 60 et une très nette diminution des crises dès le deuxième jour (2 à 3 par 24 heures) est notée. La tolérance est très bonne. • Obseryation N°2: • Monsieur CLI...., 75 ans présente un bloc auriculo- ventriculaire complet appareillé par pace-maker cardis à un rythme fixe (68/mn) avec parpsystolie. A l'suscultation on note un souffle systolique en écharpe. L'électrocardiogramme montre une paracystolie avec complexes spontanés à F.R. long et aspect de bloc gauche et co-plexe électro- entrainés. La radiographie montre une hypertrophie ventriculaire gauche modérée. Le traitement consiste en la prise journalière pendant 10 jours du composé exemple 1 à 200 mg.
Monsieur HEL ...., 44 ans a une hypertension artérielle depuis 3 ans; les chiffres habituels récents sont 180/110 mn Mg. L'étiologie est inconnue et il n'y a pas de complications. On associe au traitement consistant en la prise le matin d' 1 comprimé à 200 mg, pendant 15 jours, un régime hyposodé.

CC(=O)Nc1ccc(OCC(O)CNC(C)C)cc1 (stereo not drawn) [Fractolol, 4' - [2-hydroxy-3 - (iso-propylamino)propoxy] acétanilide]
dose efficace 50 (DE 50), inhibition de la tachycardie à l'isoprénaline [1]: 0,61 mg/kg/I.V.

COC(=O)/C=C/c1ccccc1OCC(O)CNC(C)C (stereo not drawn) [LM 748, chlorhydrate de l'ortho (isopropylamino 3 - hydroxy-2 propoxy) trans cinnamate de méthyle]
dose efficace 50 (DE 50), inhibition de l'hypotension à l'isoprénaline [2]: 0,01 mg/kg/I.V.

COC(=O)/C=C/c1ccccc1OCC(O)CNCCc1ccc(OC)c(OC)c1 (racemic) [Composé exemple 1, trans ortho [(3-4 diméthoxyphénéthyl)amino-3 hydroxy-2 propoxy] cinnamatede méthyle]
tolérance ([3]; Observation N°1: 200 mg per 24 h for 10 days): très bonne | crises par 24 heures ([3]; Observation N°1: angina attacks from the second day, one 200 mg tablet per 24 h, before treatment eight per 24 h): 2 à 3 par 24 heures | pouls ([3]; Observation N°1: patient, chronic angina, one 200 mg tablet per 24 h for 10 days, before treatment 95): 60 | tolérance ([3]; Observation N°2: 200 mg daily for 10 days): très bonne | résultat ([3]; Observation N°2: patient, complete AV block with pacemaker and parasystole, 200 mg daily for 10 days): disparition de la para- systolie | Pouls, Après ([3]; Observation N°3: after treatment, 200 mg per day for 15 days, before 70): 60 | Tension artérielle debout, Après ([3]; Observation N°3: after treatment, 200 mg per day for 15 days, before 160/100): 140/88 | Tension artérielle couché, Après ([3]; Observation N°3: after treatment, 200 mg per day for 15 days, before 165/102): 140/90 | tolérance ([3]; Observation N°3: general and local tolerance, 200 mg per day for 15 days): bonne | résultat ([3]; Observation N°3: patient, arterial hypertension, one 200 mg tablet in the morning for 15 days, with low-sodium diet): très bon
